For one test, the target named is T1, V2 (Homo sapiens, UniProt P30518).
T1 construct: purchased NIMH Psychoactive Drug Screening Program (PDSP)
As to the kind of experiment: PDSP primary binding V2. The conditions noted are these: primary binding, 10,000 nM; last figure of the line = mean of the 4 before it; read-out: V2, PDSP raw data, mean. The procedure: (§1) To determine if any off-target receptor-binding effects are present, all the novel ligands were sent to the National Institute of Mental Health (NIMH), Psychoactive Drug Screening Program (PDSP). The ligands were screened over a panel of 47 receptors, ion channels, and transporters to determine any other possible interactions with […]. The hERG-binding was also determined. […] No binding of the test compounds to calcium channels was observed. […] It is necessary to screen the compounds for hERG-binding during the early process of drug discovery. The unintentional binding of many drugs to hERG can cause blockade of hERG K+ channels in the heart, which can cause many side effects including cardiac arrhythmias and sudden death. […] All of the α5 imidazodiazepines were tested for hERG-binding.
(§2) The NIMH PDSP assay protocol book [https://kidbdev.med.unc.edu/databases/PDSP%20Protocols%20II%202013-03-28.pdf accessed on 23 April 2023]. describes the protocols for primary and secondary radio-ligand binding assays. These assays were carried out in a final volume of 125 µL per well in the appropriate binding buffer.
(§3) The binding of a ligand to a receptor, ion channel, or transporter was determined in the […] of 10 µM of the appropriate reference compound. […] Plates were incubated in the dark for 90 min at rt, and the reactions were stopped by vacuum filtration onto 0.3% polyethyleneimine (PEI) soaked 96-well filter mats using a 96-well Filtermateharvester. This was followed by three washes with cold PBS buffer. Radioactivity was then counted on a Microbeta counter. Nonlinear regression was used to analyze the data with N = 6 replicates.

Another test has as its system Alpha7. As to the kind of experiment: PDSP primary binding Alpha7. The conditions noted are these: primary binding, 10,000 nM; last figure of the line = mean of the 4 before it. The procedure: as §1, §2, §3
Another test addresses T2, D5 (Homo sapiens, UniProt P21918).
T2 construct: purchased NIMH Psychoactive Drug Screening Program (PDSP)
The experiment in a line: PDSP primary binding D5. Conditions: 1.5 h; primary binding, 10,000 nM; last figure of the line = mean of the 4 before it; read-out: D5, PDSP raw data, mean. The procedure: as §1, §2, §3

The next test deals with T3, V1B (Homo sapiens, UniProt P47901).
T3 construct: purchased NIMH Psychoactive Drug Screening Program (PDSP)
T3 sequence (P47901 1-424): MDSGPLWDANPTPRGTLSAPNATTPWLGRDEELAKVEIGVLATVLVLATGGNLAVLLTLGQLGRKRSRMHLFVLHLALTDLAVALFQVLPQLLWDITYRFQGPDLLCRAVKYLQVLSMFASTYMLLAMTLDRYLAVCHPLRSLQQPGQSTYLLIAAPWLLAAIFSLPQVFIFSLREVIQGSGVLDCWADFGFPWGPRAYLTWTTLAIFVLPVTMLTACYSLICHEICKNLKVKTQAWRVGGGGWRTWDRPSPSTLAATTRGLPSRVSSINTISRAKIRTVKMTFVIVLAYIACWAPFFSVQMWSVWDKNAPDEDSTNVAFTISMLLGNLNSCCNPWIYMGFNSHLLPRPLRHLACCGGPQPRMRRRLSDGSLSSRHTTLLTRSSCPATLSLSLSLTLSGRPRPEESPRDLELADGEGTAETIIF
The experiment in a line: PDSP primary binding V1B. Conditions: primary binding, 10,000 nM; last figure of the line = mean of the 4 before it; read-out: V1B, PDSP raw data, mean. The method, then: as §1, §2, §3

The next test relates to AMPA. The experiment in a line: PDSP primary binding AMPA. The conditions noted are these: primary binding, 10,000 nM; last figure of the line = mean of the 4 before it. The procedure: as §1, §2, §3
A further test has as its target T4, 5-HT2B (Homo sapiens, UniProt P41595).
T4 construct: purchased NIMH Psychoactive Drug Screening Program (PDSP)
The experiment in a line: PDSP primary binding 5-HT2B. The conditions noted are these: 1.5 h; primary binding, 10,000 nM; last figure of the line = mean of the 4 before it; read-out: 5-HT2B, PDSP raw data, mean. The method, then: as §1, §2, §3

The target of another test is T5, D2 (Homo sapiens, UniProt P14416).
T5 construct: purchased NIMH Psychoactive Drug Screening Program (PDSP)
The experiment in a line: PDSP primary binding D2. Conditions: 1.5 h; primary binding, 10,000 nM; last figure of the line = mean of the 4 before it; read-out: D2, PDSP raw data, mean. The procedure: as §1, §2, §3

For a further test, the target named is T6, 5-HT1A (Homo sapiens, UniProt P08908).
T6 construct: purchased NIMH Psychoactive Drug Screening Program (PDSP)
T6 sequence (P08908 1-422): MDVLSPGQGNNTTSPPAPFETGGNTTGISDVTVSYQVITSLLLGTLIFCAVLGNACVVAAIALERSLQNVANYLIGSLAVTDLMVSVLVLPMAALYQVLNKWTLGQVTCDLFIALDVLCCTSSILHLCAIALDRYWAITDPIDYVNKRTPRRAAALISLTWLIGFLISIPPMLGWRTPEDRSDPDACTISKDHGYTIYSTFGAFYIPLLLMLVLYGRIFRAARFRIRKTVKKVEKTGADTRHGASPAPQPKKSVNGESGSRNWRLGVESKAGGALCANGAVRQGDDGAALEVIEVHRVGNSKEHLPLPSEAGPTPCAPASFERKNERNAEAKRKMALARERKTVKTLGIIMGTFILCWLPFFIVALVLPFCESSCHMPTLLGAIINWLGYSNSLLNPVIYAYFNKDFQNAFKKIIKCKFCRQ
As to the kind of experiment: PDSP primary binding 5-HT1A. The conditions noted are these: 1.5 h; primary binding, 10,000 nM; last figure of the line = mean of the 4 before it; read-out: 5-HT1A, PDSP raw data, mean. The method, then:
as §1, §2, §3

In another test the target is T7, DOR (Homo sapiens, UniProt P41143).
T7 construct: purchased NIMH Psychoactive Drug Screening Program (PDSP)
The experiment in a line: PDSP radioligand binding at DOR.
Description: Opioid receptors are a family of inhibitory G-coupled protein receptors where opioids act as the ligand. The kappa opioid receptors (KOR), µ and δ opioid receptors (MOR and DOR), and nociception opioid receptor (NOP) fall under the family of opioids receptors. It has been reported that oxadiazole imidazodiazepines can mediate analgesic and anti-inflammatory properties mediated also by the κ opioid receptor (KOR). The binding at KOR is usually silent. The affinities of the test compounds for KOR, DOR, and MOR were determined using radioligand binding assays at a screening concentration of 10,000 nM in collaboration with the National Institute of Mental Health’s Psychoactive Drug Screening Program (PDSP), as mentioned before. Concentration-dependent experiments were conducted to determine Ki values for the compounds that exceeded more than 50% radioligand displacement in primary binding assays.
as §2, §3

In the next test the target is T8, NET (Homo sapiens, UniProt P23975).
T8 construct: purchased NIMH Psychoactive Drug Screening Program (PDSP)
The experiment in a line: PDSP primary binding NET. Conditions: primary binding, 10,000 nM; last figure of the line = mean of the 4 before it; read-out: NET, PDSP raw data, mean. The procedure:
as §1, §2, §3

The next test has as its target T9, 5-HT2A (Homo sapiens, UniProt P28223).
T9 construct: purchased NIMH Psychoactive Drug Screening Program (PDSP)
The experiment in a line: PDSP primary binding 5-HT2A. Conditions: 1.5 h; primary binding, 10,000 nM; last figure of the line = mean of the 4 before it; read-out: 5-HT2A, PDSP raw data, mean. The method, then:
as §1, §2, §3

Setting [1] is: at 10,000 nM, N = 5, [3H]-DADLE 2.69 nM, read-out: Primary Binding %DOR.
Where [2] appears, read: primary binding, 10,000 nM, last figure of the line = mean of the 4 before it, read-out: DOR, PDSP raw data, mean.

Like-named read-outs stand apart in the source and are kept apart here.

T4 sequence (P41595 whole entry): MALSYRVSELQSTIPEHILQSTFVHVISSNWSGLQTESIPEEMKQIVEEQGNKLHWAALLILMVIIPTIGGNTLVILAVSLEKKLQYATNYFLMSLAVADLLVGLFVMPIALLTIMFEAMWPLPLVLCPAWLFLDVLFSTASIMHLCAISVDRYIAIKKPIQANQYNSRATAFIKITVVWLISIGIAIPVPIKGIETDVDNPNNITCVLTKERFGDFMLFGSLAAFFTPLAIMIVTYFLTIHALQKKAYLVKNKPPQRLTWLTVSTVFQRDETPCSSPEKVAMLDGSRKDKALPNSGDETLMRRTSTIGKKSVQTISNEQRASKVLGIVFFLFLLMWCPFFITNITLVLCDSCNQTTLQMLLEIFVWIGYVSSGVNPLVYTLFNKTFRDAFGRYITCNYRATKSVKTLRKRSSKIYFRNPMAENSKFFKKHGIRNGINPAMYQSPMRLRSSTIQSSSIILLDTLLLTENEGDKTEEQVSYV
T2 sequence (P21918 whole entry): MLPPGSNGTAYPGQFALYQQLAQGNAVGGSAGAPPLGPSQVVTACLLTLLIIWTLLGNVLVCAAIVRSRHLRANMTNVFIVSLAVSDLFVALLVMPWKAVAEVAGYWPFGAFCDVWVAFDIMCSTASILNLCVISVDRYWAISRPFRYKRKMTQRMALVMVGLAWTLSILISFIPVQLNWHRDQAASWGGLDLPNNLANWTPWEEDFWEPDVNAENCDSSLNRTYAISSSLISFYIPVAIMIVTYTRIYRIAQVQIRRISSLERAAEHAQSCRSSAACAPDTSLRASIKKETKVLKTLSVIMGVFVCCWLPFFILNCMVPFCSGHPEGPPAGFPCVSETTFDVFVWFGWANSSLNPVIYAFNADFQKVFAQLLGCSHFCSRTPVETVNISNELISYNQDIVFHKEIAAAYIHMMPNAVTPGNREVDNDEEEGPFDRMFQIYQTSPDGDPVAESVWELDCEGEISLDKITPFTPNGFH
T9 sequence (P28223 whole entry): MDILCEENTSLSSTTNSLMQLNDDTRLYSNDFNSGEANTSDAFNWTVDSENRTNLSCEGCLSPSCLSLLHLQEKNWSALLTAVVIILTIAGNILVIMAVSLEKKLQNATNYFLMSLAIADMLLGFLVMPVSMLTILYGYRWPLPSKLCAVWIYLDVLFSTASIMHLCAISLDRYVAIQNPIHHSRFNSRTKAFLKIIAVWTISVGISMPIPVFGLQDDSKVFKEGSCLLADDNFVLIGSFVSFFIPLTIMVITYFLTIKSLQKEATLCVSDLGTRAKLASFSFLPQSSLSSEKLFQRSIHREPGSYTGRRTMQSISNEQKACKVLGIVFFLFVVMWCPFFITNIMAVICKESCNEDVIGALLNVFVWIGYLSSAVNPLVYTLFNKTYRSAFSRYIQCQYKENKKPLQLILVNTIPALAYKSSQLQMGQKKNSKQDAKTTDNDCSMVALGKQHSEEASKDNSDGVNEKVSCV
T7 sequence (P41143 whole entry): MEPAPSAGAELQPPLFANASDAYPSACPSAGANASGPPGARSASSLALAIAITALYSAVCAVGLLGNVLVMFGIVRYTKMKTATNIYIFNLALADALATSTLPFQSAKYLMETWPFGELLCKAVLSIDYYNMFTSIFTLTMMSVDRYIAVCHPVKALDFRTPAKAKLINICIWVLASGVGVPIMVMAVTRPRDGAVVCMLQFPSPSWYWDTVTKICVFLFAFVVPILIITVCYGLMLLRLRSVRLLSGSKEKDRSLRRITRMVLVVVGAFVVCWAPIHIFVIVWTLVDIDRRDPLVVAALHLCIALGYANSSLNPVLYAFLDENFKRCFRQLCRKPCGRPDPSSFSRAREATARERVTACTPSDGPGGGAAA
T8 sequence (P23975 whole entry): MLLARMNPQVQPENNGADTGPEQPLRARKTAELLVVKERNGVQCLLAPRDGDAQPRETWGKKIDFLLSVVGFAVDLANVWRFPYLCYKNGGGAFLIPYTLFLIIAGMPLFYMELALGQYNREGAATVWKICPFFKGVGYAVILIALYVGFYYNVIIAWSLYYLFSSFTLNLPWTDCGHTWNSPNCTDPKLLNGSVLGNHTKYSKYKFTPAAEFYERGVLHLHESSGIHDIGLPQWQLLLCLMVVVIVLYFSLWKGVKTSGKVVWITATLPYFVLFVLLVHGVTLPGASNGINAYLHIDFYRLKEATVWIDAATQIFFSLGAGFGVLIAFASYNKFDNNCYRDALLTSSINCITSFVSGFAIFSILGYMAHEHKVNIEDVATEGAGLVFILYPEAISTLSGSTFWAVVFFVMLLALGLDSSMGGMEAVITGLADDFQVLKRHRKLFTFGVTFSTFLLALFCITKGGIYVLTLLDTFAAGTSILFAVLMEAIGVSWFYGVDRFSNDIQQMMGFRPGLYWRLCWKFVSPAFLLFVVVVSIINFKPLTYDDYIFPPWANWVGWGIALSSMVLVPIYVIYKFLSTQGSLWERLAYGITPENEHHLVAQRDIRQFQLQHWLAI
T5 sequence (P14416 whole entry): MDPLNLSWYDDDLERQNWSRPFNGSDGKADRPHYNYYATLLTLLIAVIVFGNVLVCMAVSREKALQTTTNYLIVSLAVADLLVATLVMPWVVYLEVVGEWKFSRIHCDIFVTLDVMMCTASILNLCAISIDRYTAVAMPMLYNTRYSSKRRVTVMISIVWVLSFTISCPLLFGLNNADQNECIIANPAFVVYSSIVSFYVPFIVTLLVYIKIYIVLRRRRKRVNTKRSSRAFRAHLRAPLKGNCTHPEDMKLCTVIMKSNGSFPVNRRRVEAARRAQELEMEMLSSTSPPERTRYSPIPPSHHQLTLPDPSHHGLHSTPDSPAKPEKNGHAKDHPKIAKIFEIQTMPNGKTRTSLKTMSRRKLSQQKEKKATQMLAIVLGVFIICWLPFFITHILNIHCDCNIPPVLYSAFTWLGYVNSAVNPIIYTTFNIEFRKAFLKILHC
T1 sequence (P30518 whole entry): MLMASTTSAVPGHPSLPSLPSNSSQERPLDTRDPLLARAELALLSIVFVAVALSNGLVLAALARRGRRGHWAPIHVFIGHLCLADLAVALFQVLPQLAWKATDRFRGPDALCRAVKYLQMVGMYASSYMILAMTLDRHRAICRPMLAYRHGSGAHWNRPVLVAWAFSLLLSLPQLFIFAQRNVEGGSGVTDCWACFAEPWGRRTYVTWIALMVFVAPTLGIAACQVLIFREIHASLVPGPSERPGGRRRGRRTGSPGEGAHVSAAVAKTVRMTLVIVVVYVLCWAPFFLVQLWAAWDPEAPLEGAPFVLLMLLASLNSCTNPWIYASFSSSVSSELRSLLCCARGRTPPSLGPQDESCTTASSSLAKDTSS

Turning to `C[C@H]1N=C(c2ccccc2F)c2cc(-c3ccccc3)ccc2-n2cnc(C(=O)N(C)C)c21` [Compound 5, (R)-6-(2′-Fluorophenyl)-N,N,4-trimethyl-8-phenyl-4H-benzo[f]imidazo[1,5-a][1,4]diazepine-3-carboxamide], the inhibition at 10 µM turned out to be 19.7% on V2; 1.22% on D5; 1.4% on V1B; 26.5% on 5-HT2B; 0.27% at D2; 2.37% at 5-HT1A. In addition, the inhibition at 10 µM on DOR (setting [1]) was 43 ± 7.83%; on DOR (setting [2]), 43%; on NET, -6%; on 5-HT2A it was 10.7%. In the test with Alpha7, the “Alpha7, PDSP raw data, mean” value is recorded as -18.33%. The “AMPA, PDSP raw data, mean” value in the test on AMPA is recorded as 7.77%.
As for `C#Cc1ccc2c(c1)C(c1ccccc1Cl)=N[C@H](C)c1c(C(=O)NC)ncn1-2` [Compound 21, (R)-6-(2′-Chlorophenyl)-8-ethynyl-N,4-dimethyl-4H-benzo[f]imidazo[1,5-a][1,4]diazepine-3-carboxamide], the inhibition at 10 µM at V2 is 43%; on D5, 12.2%; on V1B, 45.8%; on 5-HT2B it was -5.07%; on D2, -4.19%; on 5-HT1A, 4.88%. The inhibition at 10 µM at DOR (setting [1]) was 28.3 ± 4.67%; on DOR (setting [2]), 28.3%; on NET, -2.45%; at 5-HT2A, -7.9%. For the same compound, the “Alpha7, PDSP raw data, mean” value with Alpha7 is reported as -10.85%. Moreover, in the test with AMPA, the “AMPA, PDSP raw data, mean” value is -31.95%.
As for `C#Cc1ccc2c(c1)C(c1ccccn1)=N[C@@H](C)c1c(C(=O)NC)ncn1-2` [Compound 23, (S)-8-Ethynyl-N,4-dimethyl-6-(pyridin-2′-yl)-4H-benzo[f]imidazo[1,5-a][1,4]diazepine-3-carboxamide], the inhibition at 10 µM was 10.2% at V2; -16.1% on D5; -4.18% at V1B; -3.33% at 5-HT2B; -4.79% at D2; 2.23% at 5-HT1A. Moreover, the inhibition at 10 µM is 14.9 ± 8.84% on DOR (setting [1]), 14.9% at DOR (setting [2]), 2.62% on NET and -0.6% at 5-HT2A. For the same compound, the “Alpha7, PDSP raw data, mean” value in the test with Alpha7 was -5.28%. The “AMPA, PDSP raw data, mean” value in the test with AMPA was -17.23%.
For the compound `C#Cc1ccc2c(c1)C(c1ccccc1Cl)=N[C@H](C)c1c(C(=O)N(C)CC)ncn1-2` [Compound 29], the inhibition at 10 µM on V2 was 21.9%; on D5, -17.2%; at V1B it was 11%; on 5-HT2B it was 30%; on D2, -1.58%; at 5-HT1A, -2.7%. For the same compound, the inhibition at 10 µM on DOR (setting [1]) is 39.5 ± 3.21%; on DOR (setting [2]), 39.5%; at NET, -2.63%; at 5-HT2A, -3.89%. For the same compound, the “Alpha7, PDSP raw data, mean” value in the test on Alpha7 was -2.05%. In addition, the “AMPA, PDSP raw data, mean” value in the test with AMPA is on record as -3.32%.
For `C#Cc1ccc2c(c1)C(c1ccccn1)=N[C@@H](C)c1c(C(=O)N(C)C)ncn1-2` [Compound 31, (S)-8-Ethynyl-N,N,4-trimethyl-6-(pyridin-2′-yl)-4H-benzo[f]imidazo[1,5-a][1,4]diazepine-3-carboxamide], the inhibition at 10 µM on V2 was 15.4%; on D5, -11.1%; on V1B, 24.3%; at 5-HT2B, -3.38%; at D2, 3.47%; at 5-HT1A it was -0.48%. Also, the inhibition at 10 µM at DOR (setting [1]) is 6.18 ± 11.2%; on DOR (setting [2]), 6.18%; at NET, 10.2%; on 5-HT2A, -13.1%. For the same compound, in the test on Alpha7, the “Alpha7, PDSP raw data, mean” value is reported as -3.44%. Further, the “AMPA, PDSP raw data, mean” value with AMPA was -10.56%.
For `C#Cc1ccc2c(c1)C(c1ccccc1F)=N[C@H](C)c1c(C(=S)N(C)C)ncn1-2` [Compound 33, (R)-8-Ethynyl-6-(2′-fluorophenyl)-N,N,4-trimethyl-4H-benzo[f]imidazo[1,5-a][1,4]diazepine-3-carbothioamide], the inhibition at 10 µM was 19.7% at V2; 1.22% at D5; 1.4% at V1B; 26.5% at 5-HT2B; 0.27% on D2; 2.37% on 5-HT1A. In addition, the inhibition at 10 µM at DOR (setting [1]) is 13.2 ± 7.83%; at DOR (setting [2]) it was 43%; at NET it was -6%; on 5-HT2A, 10.7%. Moreover, the “Alpha7, PDSP raw data, mean” value with Alpha7 is on record as -18.33%. The “AMPA, PDSP raw data, mean” value in the test on AMPA is 7.77%.
In the case of `CCc1noc(-c2ncn3c2[C@@H](C)N=C(c2ccccc2F)c2cc(-c4ccccc4)ccc2-3)n1` [Compound 35, (R)-3-Ethyl-5-(6-(2′-fluorophenyl)-4-methyl-8-phenyl-4H-benzo[f]imidazo[1,5-a][1,4]diazepin-3-yl)-1,2,4-oxadiazole], the inhibition at 10 µM on V2 amounted to 37.4%; on D5, 23.6%; on V1B, 21%; at 5-HT2B, 13.8%; at D2, 7.47%; at 5-HT1A, 28.9%. The inhibition at 10 µM amounted to 52.7 ± 4.38% on DOR (setting [1]), 52.7% at DOR (setting [2]), 10.2% at NET and 32.3% at 5-HT2A. In addition, in the test on Alpha7, the “Alpha7, PDSP raw data, mean” value is given as -23.18%. Also, the “AMPA, PDSP raw data, mean” value with AMPA is listed as -5.68%.
